Test results from patent US9717748B2, “Compositions and methods for treating an infection” (CMPD LICENSING, LLC, priority 2015, dated 2017).

How the values were obtained:
[1] = tested on: Bacteroides fragilis; experiment: Expected efficacy of antibiotic agents; details: Gram: anaer
[2] = tested on: Chlamydia pneumoniae; experiment: Expected efficacy of antibiotic agents; details: Gram: n/a
[3] = tested on: Campylobacter jejuni; experiment: Expected efficacy of antibiotic agents; details: Gram: neg
[4] = tested on: Citrobacter freundii; experiment: Expected efficacy of antibiotic agents; details: Gram: neg
[5] = tested on: Francisella tularensis; details: Gram: neg
[6] = tested on: Haemophilus parainfluenzae; experiment: Expected efficacy of antibiotic agents; details: Gram: neg
[7] = tested on: Klebsiella pneumoniae; experiment: Expected efficacy of antibiotic agents; details: Gram: neg
[8] = tested on: Legionella pneumophila; details: Gram: neg
[9] = tested on: Moraxella catarrhalis; experiment: Expected efficacy of antibiotic agents; details: Gram: neg
[10] = tested on: Neisseria gonorrhoeae; experiment: Expected efficacy of antibiotic agents; details: Gram: neg
[11] = tested on: Proteus mirabilis; experiment: Expected efficacy of antibiotic agents; details: Gram: neg
[12] = tested on: Providencia rettgeri; experiment: Expected efficacy of antibiotic agents; details: Gram: neg
[13] = tested on: Providencia stuartii; experiment: Expected efficacy of antibiotic agents; details: Gram: neg
[14] = tested on: Pseudomonas aeruginosa; experiment: Expected efficacy of antibiotic agents; details: Gram: neg
[15] = tested on: Salmonella typhi; experiment: Expected efficacy of antibiotic agents; details: Gram: neg
[16] = tested on: Shigella dysenteriae; experiment: Expected efficacy of antibiotic agents; details: Gram: neg
[17] = tested on: Shigella flexneri; experiment: Expected efficacy of antibiotic agents; details: Gram: neg
[18] = tested on: Shigella sonnei; experiment: Expected efficacy of antibiotic agents; details: Gram: neg
[19] = tested on: Yersinia pestis; details: Gram: neg
[20] = tested on: Corynebacterium jeikeium; experiment: Expected efficacy of antibiotic agents; details: Gram: pos
[21] = tested on: Enterococcus faecium; experiment: Expected efficacy of antibiotic agents; details: Gram: pos
[22] = tested on: Methicillin resistant staphaureus (MRSA); experiment: Expected efficacy of antibiotic agents; details: Gram: pos
[23] = tested on: Staphylococcus aureus (MSSA); experiment: Expected efficacy of antibiotic agents; details: Gram: pos
[24] = tested on: Staphylococcus epidermidis; experiment: Expected efficacy of antibiotic agents; details: Gram: pos
[25] = tested on: Chlamydia psittaci; details: Gram: n/a
[26] = tested on: Chlamydia trachomatis; experiment: Expected efficacy of antibiotic agents; details: Gram: n/a
[27] = tested on: Acinetobacter baumannii; experiment: Expected efficacy of antibiotic agents; details: Gram: neg
[28] = tested on: Acinetobacter lwoffii; experiment: Expected efficacy of antibiotic agents; details: Gram: neg
[29] = tested on: Brucella species; details: Gram: neg
[30] = tested on: Citrobacter diversus; experiment: Expected efficacy of antibiotic agents; details: Gram: neg
[31] = tested on: Haemophilus ducreyi; experiment: Expected efficacy of antibiotic agents; details: Gram: neg
[32] = tested on: Klebsiella (Calymmato-bacterium) granulomatis; experiment: Expected efficacy of antibiotic agents; details: Gram: neg
[33] = tested on: Morganella morganii; experiment: Expected efficacy of antibiotic agents; details: Gram: neg
[34] = tested on: Proteus vulgaris; experiment: Expected efficacy of antibiotic agents; details: Gram: neg
[35] = tested on: Serratia marcescens; experiment: Expected efficacy of antibiotic agents; details: Gram: neg
[36] = tested on: Enterococcus faecalis; experiment: Expected efficacy of antibiotic agents; details: Gram: pos
[37] = tested on: Aspergillus flavus; experiment: Expected efficacy of antifungal agents
[38] = tested on: Aspergillus fumigatus; experiment: Expected efficacy of antifungal agents
[39] = tested on: Coccidioides immitis
[40] = tested on: Cryptococcus neoformans; experiment: Expected efficacy of antifungal agents
[41] = tested on: Clostridium difficile; experiment: Expected efficacy of antibiotic agents; details: Gram: anaer
[42] = tested on: Clostridium perfringens; details: Gram: anaer
[43] = tested on: Mycoplasma pneumoniae; experiment: Expected efficacy of antibiotic agents; details: Gram: n/a
[44] = tested on: Acinetobacter calcoaceticus; experiment: Expected efficacy of antibiotic agents; details: Gram: neg
[45] = tested on: Enterobacter aerogenes; experiment: Expected efficacy of antibiotic agents; details: Gram: neg
[46] = tested on: Enterobacter cloacae; experiment: Expected efficacy of antibiotic agents; details: Gram: neg
[47] = tested on: Enterobacter sakazakii; experiment: Expected efficacy of antibiotic agents; details: Gram: neg
[48] = tested on: Escherichia coli; experiment: Expected efficacy of antibiotic agents; details: Gram: neg
[49] = tested on: Klebsiella oxytoca; experiment: Expected efficacy of antibiotic agents; details: Gram: neg
[50] = tested on: Pseudomonas fluorescens; experiment: Expected efficacy of antibiotic agents; details: Gram: neg
[51] = tested on: Streptococcus agalactiae; experiment: Expected efficacy of antibiotic agents; details: Gram: pos
[52] = tested on: Streptococcus pyogenes; experiment: Expected efficacy of antibiotic agents; details: Gram: pos

## O=C(O)c1cn(C2CC2)c2cc(N3CCNCC3)c(F)cc2c1=O [Ciprofloxacin]
[1]
  Expected efficacy against Bacteroides fragilis: no
[2]
  Expected efficacy against Chlamydia pneumoniae: yes
[3]
  Expected efficacy against Campylobacter jejuni: yes
[4]
  Expected efficacy against Citrobacter freundii: yes
[5]
  Expected efficacy against Francisella tularensis: yes
[6]
  Expected efficacy against Haemophilus parainfluenzae: yes
[7]
  Expected efficacy against Klebsiella pneumoniae: yes
[8]
  Expected efficacy against Legionella pneumophila: yes
[9]
  Expected efficacy against Moraxella catarrhalis: yes
[10]
  Expected efficacy against Neisseria gonorrhoeae: yes
[11]
  Expected efficacy against Proteus mirabilis: yes
[12]
  Expected efficacy against Providencia rettgeri: yes
[13]
  Expected efficacy against Providencia stuartii: yes
[14]
  Expected efficacy against Pseudomonas aeruginosa: yes
[15]
  Expected efficacy against Salmonella typhi: yes
[16]
  Expected efficacy against Shigella dysenteriae: yes
[17]
  Expected efficacy against Shigella flexneri: yes
[18]
  Expected efficacy against Shigella sonnei: yes
[19]
  Expected efficacy against Yersinia pestis: yes
[20]
  Expected efficacy against Corynebacterium jeikeium: no
[21]
  Expected efficacy against Enterococcus faecium: no
[22]
  Expected efficacy against Methicillin resistant staphaureus (MRSA): no
[23]
  Expected efficacy against Staphylococcus aureus (MSSA): no
[24]
  Expected efficacy against Staphylococcus epidermidis: yes

## C[C@H]1c2cccc(O)c2C(=O)C2=C(O)[C@]3(O)C(=O)C(C(N)=O)=C(O)[C@@H](N(C)C)[C@@H]3[C@@H](O)[C@@H]21 [Doxycyline]
[2]
  Expected efficacy against Chlamydia pneumoniae: yes
[25]
  Expected efficacy against Chlamydia psittaci: yes
[26]
  Expected efficacy against Chlamydia trachomatis: yes
[27]
  Expected efficacy against Acinetobacter baumannii: no
[28]
  Expected efficacy against Acinetobacter lwoffii: no
[29]
  Expected efficacy against Brucella species: yes
[3]
  Expected efficacy against Campylobacter jejuni: yes
[30]
  Expected efficacy against Citrobacter diversus: no
[4]
  Expected efficacy against Citrobacter freundii: no
[5]
  Expected efficacy against Francisella tularensis: yes
[31]
  Expected efficacy against Haemophilus ducreyi: yes
[6]
  Expected efficacy against Haemophilus parainfluenzae: yes
[32]
  Expected efficacy against Klebsiella (Calymmato-bacterium) granulomatis: yes
[8]
  Expected efficacy against Legionella pneumophila: yes
[9]
  Expected efficacy against Moraxella catarrhalis: yes
[33]
  Expected efficacy against Morganella morganii: no
[11]
  Expected efficacy against Proteus mirabilis: no
[34]
  Expected efficacy against Proteus vulgaris: no
[12]
  Expected efficacy against Providencia rettgeri: no
[13]
  Expected efficacy against Providencia stuartii: no
[14]
  Expected efficacy against Pseudomonas aeruginosa: no
[35]
  Expected efficacy against Serratia marcescens: no
[19]
  Expected efficacy against Yersinia pestis: yes
[36]
  Expected efficacy against Enterococcus faecalis: no
[21]
  Expected efficacy against Enterococcus faecium: no
[24]
  Expected efficacy against Staphylococcus epidermidis: yes

## OC(Cn1cncn1)(Cn1cncn1)c1ccc(F)cc1F [Fluconazole]
[37]
  Expected efficacy against Aspergillus flavus: yes
[38]
  Expected efficacy against Aspergillus fumigatus: yes
[39]
  Expected efficacy against Coccidioides immitis: yes
[40]
  Expected efficacy against Cryptococcus neoformans: yes

## Azithromycin
[1]
  Expected efficacy against Bacteroides fragilis: no
[41]
  Expected efficacy against Clostridium difficile: no
[42]
  Expected efficacy against Clostridium perfringens: no
[2]
  Expected efficacy against Chlamydia pneumoniae: yes
[25]
  Expected efficacy against Chlamydia psittaci: yes
[26]
  Expected efficacy against Chlamydia trachomatis: yes
[43]
  Expected efficacy against Mycoplasma pneumoniae: yes
[27]
  Expected efficacy against Acinetobacter baumannii: no
[44]
  Expected efficacy against Acinetobacter calcoaceticus: no
[28]
  Expected efficacy against Acinetobacter lwoffii: no
[29]
  Expected efficacy against Brucella species: no
[3]
  Expected efficacy against Campylobacter jejuni: yes
[30]
  Expected efficacy against Citrobacter diversus: no
[4]
  Expected efficacy against Citrobacter freundii: no
[45]
  Expected efficacy against Enterobacter aerogenes: no
[46]
  Expected efficacy against Enterobacter cloacae: no
[47]
  Expected efficacy against Enterobacter sakazakii: no
[48]
  Expected efficacy against Escherichia coli: no
[5]
  Expected efficacy against Francisella tularensis: no
[32]
  Expected efficacy against Klebsiella (Calymmato-bacterium) granulomatis: no
[49]
  Expected efficacy against Klebsiella oxytoca: no
[7]
  Expected efficacy against Klebsiella pneumoniae: no
[8]
  Expected efficacy against Legionella pneumophila: yes
[9]
  Expected efficacy against Moraxella catarrhalis: yes
[33]
  Expected efficacy against Morganella morganii: no
[11]
  Expected efficacy against Proteus mirabilis: no
[34]
  Expected efficacy against Proteus vulgaris: no
[12]
  Expected efficacy against Providencia rettgeri: no
[13]
  Expected efficacy against Providencia stuartii: no
[14]
  Expected efficacy against Pseudomonas aeruginosa: no
[50]
  Expected efficacy against Pseudomonas fluorescens: no
[35]
  Expected efficacy against Serratia marcescens: no
[20]
  Expected efficacy against Corynebacterium jeikeium: no
[36]
  Expected efficacy against Enterococcus faecalis: no
[21]
  Expected efficacy against Enterococcus faecium: no
[22]
  Expected efficacy against Methicillin resistant staphaureus (MRSA): no
[23]
  Expected efficacy against Staphylococcus aureus (MSSA): yes
[24]
  Expected efficacy against Staphylococcus epidermidis: yes
[51]
  Expected efficacy against Streptococcus agalactiae: yes
[52]
  Expected efficacy against Streptococcus pyogenes: yes
